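Cultured in 96-well plates, cells were exposed to test compound for 48 hours across five concentrations. GI50 = concentration required for 50% inhibition of growth.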 The source made the active and inactive calls. Cut-off read from the data, not from the text of the source: active = GI50 up to about 1.1 µM and inactive = higher.
Tests used:
Test in all cases: NCI tumour cell line growth inhibition, 48 h
786-0 = tested on: 786-0
A549 = tested on: A549
HCC 2998 = tested on: HCC 2998
HCT-15 = tested on: HCT-15
HOP-62 = tested on: HOP-62
K562 = tested on: K562
LOX IMVI = tested on: LOX IMVI
NCI-H460 = tested on: NCI-H460
NCI-H522 = tested on: NCI-H522
OVCAR-3 = tested on: OVCAR-3
OVCAR-4 = tested on: OVCAR-4
OVCAR-5 = tested on: OVCAR-5
SF-268 = tested on: SF-268
SK-OV-3 = tested on: SK-OV-3
SW-620 = tested on: SW-620
U-251 = tested on: U-251
UACC-257 = tested on: UACC-257
SR = tested on: SR

Compound	GI50 (786-0)	GI50 (A549)	GI50 (HCC 2998)	GI50 (HCT-15)	GI50 (HOP-62)	GI50 (K562)	GI50 (LOX IMVI)	GI50 (NCI-H460)	GI50 (NCI-H522)	GI50 (OVCAR-3)	GI50 (OVCAR-4)	GI50 (OVCAR-5)	GI50 (SF-268)	GI50 (SK-OV-3)	GI50 (SW-620)	GI50 (U-251)	GI50 (UACC-257)	GI50 (SR)
O=C(Nc1nc2ncn(CCOC(=O)c3ccccc3)c2c(=S)[nH]1)c1ccccc1	62.5 µM (inactive)	66.2 µM (inactive)	> 100 µM (inactive)	> 100 µM	28.2 µM (inactive)	60.8 µM (inactive)	> 100 µM (inactive)	48.1 µM (inactive)	21 µM (inactive)	43.1 µM (inactive)	23.5 µM (inactive)	> 100 µM (inactive)	13.5 µM (inactive)	> 100 µM (inactive)	> 100 µM (inactive)	31.8 µM (inactive)	55.8 µM (inactive)	
CCOC(=O)C1(C)CCCCC(=O)N1 (centres undefined)	> 100 µM (inactive)	> 100 µM (inactive)	> 100 µM (inactive)	> 100 µM	> 100 µM (inactive)	> 100 µM (inactive)	> 100 µM (inactive)	> 100 µM (inactive)		> 100 µM (inactive)	> 100 µM (inactive)		> 100 µM (inactive)	> 100 µM (inactive)	> 100 µM (inactive)	> 100 µM (inactive)		
Cc1nc2c(nc1C)C(=O)C1=C(C2=O)C2C=CC1CC2	11.9 µM (inactive)	19.4 µM (inactive)	29.4 µM (inactive)	15.1 µM	22.3 µM (inactive)	2.48 µM (inactive)	2.21 µM (inactive)	17.9 µM (inactive)	4.35 µM (inactive)	5.83 µM (inactive)	1.93 µM (inactive)	21.3 µM (inactive)	5.42 µM (inactive)	40.3 µM (inactive)	2.74 µM (inactive)	5.35 µM (inactive)	4.31 µM (inactive)	
CC1=C(C)C(=O)c2c(cc3ccccn23)C1=O	27.9 µM (inactive)	18.4 µM (inactive)	15.5 µM (inactive)	14.4 µM		27.5 µM (inactive)	5.14 µM (inactive)	15.5 µM (inactive)		14.6 µM (inactive)	27.8 µM (inactive)	45.6 µM (inactive)	20.9 µM (inactive)	20 µM (inactive)	19.2 µM (inactive)	14.1 µM (inactive)		23.3 µM (inactive)
CN(C)CCNC(=O)c1cccc2cc3c(Cl)cccc3nc12	1.12 µM (active)	0.556 µM (active)	1.27 µM (inactive)	1.19 µM	0.718 µM (active)	0.946 µM (active)	0.583 µM (active)		2.86 µM (inactive)	1.82 µM (inactive)	2.02 µM (inactive)	2.61 µM (inactive)		3.53 µM (inactive)	0.641 µM (active)	1.24 µM (inactive)	1.75 µM (inactive)	0.308 µM (active)
Nc1ccc(C2=N/C(=C\c3cccc(N)c3)C(=O)O2)cc1	> 100 µM (inactive)	> 100 µM (inactive)	> 100 µM (inactive)	> 100 µM		> 100 µM (inactive)			> 100 µM (inactive)	> 100 µM (inactive)	> 100 µM (inactive)	> 100 µM (inactive)	> 100 µM (inactive)	> 100 µM (inactive)	> 100 µM (inactive)	> 100 µM (inactive)		> 100 µM (inactive)
c1ccc([P+](c2ccccc2)(c2ccccc2)C2Sc3ccccc3S2)cc1	17.3 µM (inactive)	15 µM (inactive)	15.7 µM (inactive)		23.1 µM (inactive)	16.9 µM (inactive)	11.4 µM (inactive)	23.3 µM (inactive)	14.9 µM (inactive)	14.5 µM (inactive)	18.9 µM (inactive)	19.7 µM (inactive)	17.2 µM (inactive)	28.8 µM (inactive)	> 100 µM (inactive)	16 µM (inactive)	16.4 µM (inactive)	
O=C(CCC(=O)N/N=C/c1ccccc1O)N/N=C/c1ccccc1O	> 100 µM (inactive)	> 100 µM (inactive)	> 100 µM (inactive)	51.4 µM		> 100 µM (inactive)			53.2 µM (inactive)	42.1 µM (inactive)	> 100 µM (inactive)	> 100 µM (inactive)	18.8 µM (inactive)	18.9 µM (inactive)	> 100 µM (inactive)	32.7 µM (inactive)	> 100 µM (inactive)	> 100 µM (inactive)
CC1CN1c1c(C(=O)/C=C/c2ccc(Cl)cc2)c(-c2ccccc2)nn(C)c1=O (centres undefined)	2.81 µM (inactive)	4.42 µM (inactive)	1.99 µM (inactive)	1.82 µM	2.82 µM (inactive)	2.82 µM (inactive)	2.08 µM (inactive)	2.28 µM (inactive)	2.18 µM (inactive)	2.6 µM (inactive)	2.61 µM (inactive)	5.47 µM (inactive)	3.98 µM (inactive)	2.59 µM (inactive)	2.44 µM (inactive)	2.35 µM (inactive)	3.67 µM (inactive)	
COc1cc([C@@H]2c3cc4c(cc3[C@@H](OC(=O)c3cccc(N)c3)C3COC(=O)[C@@H]32)OCO4)cc(OC)c1O (some centres undefined)	2.49 µM (inactive)	1.63 µM (inactive)	9.93 µM (inactive)	13.3 µM	2.32 µM (inactive)	2.02 µM (inactive)	4.47 µM (inactive)	0.671 µM (active)		34.6 µM (inactive)	42.1 µM (inactive)	17.9 µM (inactive)	1.47 µM (inactive)	11.5 µM (inactive)	3.33 µM (inactive)	5.85 µM (inactive)	5.69 µM (inactive)	0.565 µM (active)
O=C(CC(=O)C1=CNc2ccccc2S1)C(=O)Nc1ccc(Cl)cc1	> 50 µM (inactive)	> 50 µM (inactive)	> 50 µM (inactive)	> 50 µM	> 50 µM (inactive)	> 24.3 µM (inactive)	> 50 µM (inactive)	> 50 µM (inactive)	> 50 µM (inactive)	> 50 µM (inactive)	> 50 µM (inactive)	> 50 µM (inactive)	> 50 µM (inactive)	> 50 µM (inactive)	> 50 µM (inactive)	> 50 µM (inactive)	> 50 µM (inactive)	
Oc1cc(O)c2c(-c3c(O)c(-c4ccc(O)c(O)c4)[o+]c4cc(O)cc(O)c34)c(O)c(-c3ccc(O)c(O)c3)[o+]c2c1	35.5 µM (inactive)	48.2 µM (inactive)	39.2 µM (inactive)	41.8 µM	38.9 µM (inactive)	> 10 µM (inactive)	32.4 µM (inactive)	21.5 µM (inactive)		20.7 µM (inactive)	27.5 µM (inactive)	> 100 µM (inactive)	40.3 µM (inactive)	34.1 µM (inactive)	48.4 µM (inactive)	30.9 µM (inactive)	> 100 µM (inactive)	25.9 µM (inactive)
CCCCCCCCCCCCCCCCc1c(O)nc(NC#N)nc1C(=O)OC	> 25 µM (inactive)	> 25 µM (inactive)	> 25 µM (inactive)	> 25 µM	> 25 µM (inactive)	> 25 µM (inactive)	> 25 µM (inactive)	> 25 µM (inactive)	> 25 µM (inactive)	> 25 µM (inactive)	> 25 µM (inactive)	> 25 µM (inactive)	> 25 µM (inactive)	> 25 µM (inactive)	> 25 µM (inactive)	> 25 µM (inactive)	> 25 µM (inactive)	
Cc1cn2c(=O)c3ccccc3nc2s1	> 100 µM (inactive)	> 100 µM (inactive)	> 100 µM (inactive)		> 100 µM (inactive)	> 100 µM (inactive)	> 100 µM (inactive)	> 100 µM (inactive)	> 100 µM (inactive)	> 100 µM (inactive)	76.6 µM (inactive)	> 100 µM (inactive)	> 100 µM (inactive)	> 100 µM (inactive)	> 100 µM (inactive)	> 100 µM (inactive)	> 100 µM (inactive)	> 100 µM (inactive)
Cc1cc(C(O)CCCc2ccccc2)cc(C)c1O (centres undefined)	40.6 µM (inactive)	32.7 µM (inactive)	74.1 µM (inactive)	45.9 µM	33.3 µM (inactive)	28.6 µM (inactive)	34 µM (inactive)	36.6 µM (inactive)	27.4 µM (inactive)	31.1 µM (inactive)		43.9 µM (inactive)	28.4 µM (inactive)	> 100 µM (inactive)	75.7 µM (inactive)	45.7 µM (inactive)	25.8 µM (inactive)	
CN(c1ccccc1)c1c(Cl)c(=O)oc2c1ccc1occc12	> 100 µM (inactive)	> 100 µM (inactive)	> 100 µM (inactive)	74 µM		51.2 µM (inactive)	97.3 µM (inactive)	> 100 µM (inactive)	> 100 µM (inactive)	> 100 µM (inactive)	> 100 µM (inactive)	> 100 µM (inactive)			> 100 µM (inactive)	> 100 µM (inactive)	> 100 µM (inactive)	44 µM (inactive)
CCOC(=O)c1cn(CC)c2cc3c(cc2c1=O)SCS3	> 100 µM (inactive)	> 100 µM (inactive)	> 100 µM (inactive)	> 100 µM	> 100 µM (inactive)	> 100 µM (inactive)	> 100 µM (inactive)	> 100 µM (inactive)	> 100 µM (inactive)	> 100 µM (inactive)	> 100 µM (inactive)	> 100 µM (inactive)	> 100 µM (inactive)	> 100 µM (inactive)	> 100 µM (inactive)	> 100 µM (inactive)	> 100 µM (inactive)	

Source: ChEMBL document CHEMBL1201862, “PubChem BioAssay data set” (2004)
